“And” between values parts separate entries of the source, which are not always exact repeats. Equal values may be shown once.
Experiments:
[1] = tested on: M. tuberculosis drug susceptible strain H37RV; assay: Intracellular activity against drug susceptible M. tuberculosis (H37RV) in human monocyte derived macrophages; format: cell-based; settings: for CFU (1 × 10^3): duplicate values
MAC (101, type 1) [2] = assay: MAC infected beige mice, experiment 2 (three times/week for 21 days), tissue cfu; format: in vivo, Beige mice (C57B1/6bg^j /bg^j)
Procedure: (§1) The testing of liposome encapsulated amikacin for the treatment of MAC was performed using a murine model. Beige mice (C57B1/6bg^j /bg^j) were infected with MAC (101, type 1). The mice were infected by injection of 1×10^7 Colony Forming Units (cfu) in the mouse tail vein (i.v.). Three experiments were performed. In the first experiment, 40, 80 and 120 milligrams of amikacin (liposomal and free) per kilogram of mouse body-weight was given i.v. daily for 5 days, beginning 7 days after infection. The animals were sacrificed 5 days after treatment was completed and the liver, lung and spleen tissue were plated. Quantitation of organisms in liver, spleen and lung tissue was performed. The cfu were determined by growth on Middlebrook 7h11 agar plates. Untreated and empty liposomes were used as controls.
Another experiment was carried out as above (also in two parts) except that the drug therapy was started 5 days after infection. The drug was given i.v. three times/week for 21 days. The mice were sacrificed 1-2 days after the treatment stopped. […] The lung tissues were not tested. Similar controls were used as above. The liposomes were prepared as described in Example 1. The average size of the liposomes was 66.5 nm or 79.6 nm (mean diameter). The concentration of the amikacin was either 15.98 mg/ml or 6.74 mg/ml. The total lipid was measure only the second part of the experiment and it was 27.0 mg/ml (drug to lipid ratio: 1:4.167).

MAC (101, type 1) [3] = assay: MAC infected beige mice, experiment 1 (daily for 5 days), tissue cfu; format: in vivo, Beige mice (C57B1/6bg^j /bg^j)
Procedure: as §1
The liposomes were prepared as in Example 1. This experiment was performed in two identical parts. The liposomes in the first part were of an average size of 49.8 nm and the average size of the liposomes in the second part were 73.7 nm (mean diameter). The amikacin concentration was either 15.0 mg/ml or 13.21 mg/ml and the total lipid concentration was either 121 mg/ml or 55.7 mg/ml respectively (drug to lipid ratios: 0.123, 0.24). Free drug for all experiments was prepared in the same buffer that the liposomal formulations were contained in.

[4] = format: in vivo, mouse (C57B1/6); settings: 100 mg/kg i.v.; 6 hours
Procedure: Amidacin content was measured in mouse (C57B1/6, females 2-3 months old) plasma after injection (i.v.) of free amikacin or liposomal amikacin (100 mg/kg). Liposomal amikacin was prepared as described in Example 2. Blood samples were obtained at various time intervals. The samples were collected by removing 100 microliters of blood, retroorbitally, from nonanesthetized mice. The samples were collected in heparinized capillary pipets which were plugged with modeling clay. The samples were centrifuged at 3250 rpm (20 cm rotor) for 10 minutes. The samples were analyzed using a radioimmunoassay (Diagnostic Products). The liposomal amikacin formulation contained liposomes with an average size of 43.6 nm (median diameter). The amikacin concentration was 10.09 mg/ml and the total lipid concentration was 56.8 mg/ml (drug to lipid ratio 1:5.556).

[5] = tested on: Mycobacterium tuberculosis; settings: background statement; cited from earlier work
[6] = 150 mg/kg; known in the art; cited from earlier work
MAC (101, type 1) [7] = assay: MAC infected beige mice, experiment 3 (higher doses), tissue cfu; format: in vivo, Beige mice (C57B1/6bg^j /bg^j); settings: 120 mg/kg i.v. three times/week for 21 days
Procedure: as §1
Another experiment was carried out as above (also in two parts) except that the drug therapy was started 5 days after infection. The drug was given i.v. three times/week for 21 days. The mice were sacrificed 1-2 days after the treatment stopped. During the treatment period, a group of mice received 40 mg/Kg, 80 mg/kg, and 150 mg/kg of free amikacin and another group received 40 mg/kg, 80 mg/kg, and 160 mg/kg of liposomal amikacin. The lung tissues were not tested. Similar controls were used as above. The liposomes were prepared as described in Example 1. The average size of the liposomes was 66.5 nm or 79.6 nm (mean diameter). The concentration of the amikacin was either 15.98 mg/ml or 6.74 mg/ml. The total lipid was measure only the second part of the experiment and it was 27.0 mg/ml (drug to lipid ratio: 1:4.167).
A third experiment was carried out as in the second experiment except that the mice treated with the liposomal amikacin received 120 mg/kg, 240 mg/kg and 320 mg/kg doses and the mice treated with the free amikacin received only 120 mg/kg doses. The liposomes were prepared as in Example 2 where the average size of the liposomes were 81.8 nm (median diameter). The amikacin concentration was 32.02 mg/ml and the total lipid concentration was 91.5 mg/ml (drug to lipid ratio: 1:2.941).

Pseudomonas aeruginosa = assay: Efficacy and toxicity in Pseudomonas infected mice (mortality); format: in vivo, CF-1 mice; settings: two doses
Procedure: The efficacy and toxicity of liposomal amikacin in Pseudomonas infected mice was tested. CF-1 mice were used (females, 6-8 weeks old). The mice were obtained from Jackson Labs. A clinical isolate of Pseudomonas aeruginosa was obtained on a Mueller Hinton/MacConkey blood agar plate. The organisms were transferred to a Mueller Hinton plate and grown for 24 hours. Colonies were transferred to saline and grown for 48 hours. The samples were frozen in saline containing 15% fetal calf serum at 1×10^8 organisms/ml (MacFarland Standard). The colonies were stored at -70° C. The colonies were thawed and grown in a Mueller Hinton plate for 24 hours. The bacteria were adjusted to 8×10^6 organisms/ml in saline containing talc (62.5 mg/ml) and 1 ml was injected intraperitoneal. A culture of inoculum on MH agar for 24 hours determined that approximately 7×10^6 cfu were delivered per mouse. Liposomal amikacin and empty liposomes were prepared as set out in Example 2. […] The lipid concentration was 95.31 mg/ml and the amikacin concentration was 23.54 mg/ml (0.25 drug/lipid ratio). The pH of the solution containing the formulation was 7.31. […] The concentration of the free amikacin solution was 23.54 mg/ml. The pH of the solution containing the liposomes was 7.33.
Mice were treated with 40 mg/kg (drug per body-weight), 80 mg/kg, 120 mg/kg and 240 mg/kg of liposomal amikacin. Mice were also treated with 40 mg/kg, 80 mg/kg, and 120 mg/kg of free amikacin. The drugs were administered intravenously in the caudal vein. Two doses were given; one at four hours after infection and one at twenty-four hours after infection.

[8] = 40 mg/kg i.v. three times/week for 21 days
[9] = 80 mg/kg i.v. three times/week for 21 days
[10] = 120 mg/kg i.v. three times/week for 21 days
[11] = 120 mg/kg i.v. daily for 5 days

## NCC[C@H](O)C(=O)N[C@@H]1C[C@H](N)[C@@H](O[C@H]2O[C@H](CN)[C@@H](O)[C@H](O)[C@H]2O)[C@H](O)[C@H]1O[C@H]1O[C@H](CO)[C@@H](O)[C@H](N)[C@H]1O [amikacin]
[1]; 1 μg/ml
  inhibition or killing of drug susceptible M. tuberculosis: inhibited the growth of the bacteria
[1]; 1 μg/ml, day 4
  Avg. log CFU: 4.7 log CFU
  CFU (1 × 10^3): 50 1 × 10^3 CFU and 60 1 × 10^3 CFU
[1]; 1 μg/ml, day 7
  Avg. log CFU: 5.9 log CFU
  CFU (1 × 10^3): 900 1 × 10^3 CFU and 800 1 × 10^3 CFU
[1]; 2 μg/ml
  inhibition or killing of drug susceptible M. tuberculosis: inhibition
[1]; 2 μg/ml, day 4
  Avg. log CFU: 4.3 log CFU
  CFU (1 × 10^3): 20 1 × 10^3 CFU
[1]; 2 μg/ml, day 7
  Avg. log CFU: 4.7 log CFU
  CFU (1 × 10^3): 40 1 × 10^3 CFU and 50 1 × 10^3 CFU
[1]; 4 μg/ml, day 4
  Avg. log CFU: 3.7 log CFU
  inhibition or killing of drug susceptible M. tuberculosis: obtained killing at day 4
  CFU (1 × 10^3): 4 1 × 10^3 CFU
[1]; 4 μg/ml, day 7
  Avg. log CFU: 3.4 log CFU
  CFU (1 × 10^3): 1.5 1 × 10^3 CFU and 3 1 × 10^3 CFU
MAC (101, type 1) [2]; [8]
  Liver cfu/g: 1.09 × 10^8 cfu/g
  Liver log cfu: 8.04 log cfu
  Spleen cfu/g: 5.76 × 10^8 cfu/g
  Spleen log cfu: 8.76 log cfu
MAC (101, type 1) [2]; [9]
  Liver cfu/g: 3.67 × 10^7 cfu/g
  Liver log cfu: 7.56 log cfu
  Spleen cfu/g: 2.02 × 10^8 cfu/g
  Spleen log cfu: 8.31 log cfu
MAC (101, type 1) [2]; [10]
  Liver cfu/g: 3.15 × 10^7 cfu/g
  Liver log cfu: 7.50 log cfu
  Spleen cfu/g: 1.48 × 10^8 cfu/g
  Spleen log cfu: 8.17 log cfu
MAC (101, type 1) [3]; 40 mg/kg i.v. daily for 5 days
  Liver cfu/g: 1.41 × 10^8 cfu/g
  Liver log cfu/g: 8.15 log cfu/g
  Spleen cfu/g: 4.08 × 10^8 cfu/g
  Spleen log cfu/g: 8.61 log cfu/g
  lung cfu/gram: 1.44×10^6 cfu/gram
  lung log: 6.16 log
MAC (101, type 1) [3]; 80 mg/kg i.v. daily for 5 days
  Liver cfu/g: 7.79 × 10^7 cfu/g
  Liver log cfu/g: 7.89 log cfu/g
  Spleen cfu/g: 4.82 × 10^8 cfu/g
  Spleen log cfu/g: 8.68 log cfu/g
  lung cfu/gram: 1.29×10^6 cfu/gram
  lung log: 6.11 log
MAC (101, type 1) [3]; [11]
  Liver cfu/g: 5.65 × 10^7 cfu/g
  Liver log cfu/g: 7.75 log cfu/g
  Spleen cfu/g: 3.46 × 10^8 cfu/g
  Spleen log cfu/g: 8.54 log cfu/g
  lung cfu/gram: 9.94×10^5 cfu/gram
  lung log: 6.00 log
[4]
  Average Concentration (plasma amikacin): none detected
[5]
  effectiveness against Mycobacterium tuberculosis: effective
[6]
  lethality in mice: will kill many of the mice injected
MAC (101, type 1) [7]
  Liver cfu/g: 6.10 × 10^7 cfu/g
  Liver log cfu/g: 7.78 log cfu/g
  Spleen cfu/g: 2.13 × 10^8 cfu/g
  Spleen log cfu/g: 8.33 log cfu/g
Pseudomonas aeruginosa; 40 mg/kg i.v.
  Mortality %: 25%
Pseudomonas aeruginosa; 40 mg/kg i.v., 24 hours post infection
  Mortality: 1/4
Pseudomonas aeruginosa; 40 mg/kg i.v., 30 hours post infection
  Mortality: 1/4
Pseudomonas aeruginosa; 40 mg/kg i.v., 48 hours post infection
  Mortality: 1/4
Pseudomonas aeruginosa; 40 mg/kg i.v., 72 hours post infection
  Mortality: 1/4
Pseudomonas aeruginosa; 80 mg/kg i.v.
  Mortality %: 0%
Pseudomonas aeruginosa; 80 mg/kg i.v., 24 hours post infection
  Mortality: 0/6
Pseudomonas aeruginosa; 80 mg/kg i.v., 30 hours post infection
  Mortality: 0/6
Pseudomonas aeruginosa; 80 mg/kg i.v., 48 hours post infection
  Mortality: 0/6
Pseudomonas aeruginosa; 80 mg/kg i.v., 72 hours post infection
  Mortality: 0/6
Pseudomonas aeruginosa; 120 mg/kg i.v.
  Mortality %: 0%
Pseudomonas aeruginosa; 120 mg/kg i.v., 24 hours post infection
  Mortality: 0/6
Pseudomonas aeruginosa; 120 mg/kg i.v., 30 hours post infection
  Mortality: 0/6
Pseudomonas aeruginosa; 120 mg/kg i.v., 48 hours post infection
  Mortality: 0/6
Pseudomonas aeruginosa; 120 mg/kg i.v., 72 hours post infection
  Mortality: 0/6
